The text below walks through data of ChEMBL document CHEMBL1132615, “Structure--activity relationships of lysophosphatidic acid: conformationally restricted backbone mimetics” (J Med Chem, 1999).

Assay [1] in a line: Relative potency was evaluated for its ability to mobilize intracellular calcium in MDA MB231 cells. It counts as functional, cell-based. To be noted: Homo sapiens, MDA-MB-231.
Assay [2] is described as follows: Relative potency was evaluated for its ability to mobilize intracellular calcium in MDA MB231 cells.*did not reach a maximal response at the highest concentration used. It counts as functional, cell-based. To be noted: Homo sapiens, MDA-MB-231.

`CCCCCCCC/C=C\CCCCCCCC(=O)OCC(O)COP(=O)(O)O` (single isomer, unassigned) [LYSOPHOSPHATIDIC ACID]: the EC50 in assay [1] turned out to be 5 nM.

`CCCCCCCCCCCCCCCC(=O)Oc1cccc(OP(=O)(O)O)c1`: the EC50 in assay [1] is 310 nM.

`CCCCCCCCCCCC(=O)Oc1ccc(C(=O)c2ccc(OP(=O)(O)O)cc2)cc1`: in assay [2], the EC50 was determined as 4710 nM.

For `CCCCCCCCCCCCCCCC(=O)Nc1ccc(OP(=O)(O)O)cc1`, the EC50 in assay [2] is 1560 nM.

Regarding `CCCCCCCC(=O)Oc1ccc(C(=O)c2ccc(OP(=O)(O)O)cc2)cc1`, the half-maximal effective concentration (EC50) in assay [2] is over 500000 nM.

On to `CCCCCC/C=C\CCCCCCCC(=O)Nc1ccc(OP(=O)(O)O)cc1`, for which the EC50 in assay [1] was found to be 1830 nM.

With `CCCCCC/C=C\CCCCCCCC(=O)Oc1cccc(OP(=O)(O)O)c1`, in assay [2], the EC50 came to 850 nM.

For the compound `CCCCCCCCCCCCCCCC(=O)Nc1cccc(OP(=O)(O)O)c1`, the EC50 in assay [1] came to 460 nM.

Regarding `CCCCCCCCCCCCCC(=O)Oc1ccc(C(=O)c2ccc(OP(=O)(O)O)cc2)cc1`, the EC50 in assay [2] was determined as 1990 nM.

For `CCCCCCCCCC(=O)Oc1ccc(C(=O)c2ccc(OP(=O)(O)O)cc2)cc1`, the EC50 in assay [2] is over 500000 nM.

As to `CCCCCC/C=C\CCCCCCCC(=O)Nc1cccc(OP(=O)(O)O)c1`, the EC50 in assay [1] stood at 460 nM.

`CCCCCCCC/C=C\CCCCCCCC(=O)NCCOP(=O)(O)O`: the EC50 in assay [2] was 3 nM.
